{"source": "patent US20220204510A1", "about": "“2,3-DIHYDRO-1H-PYRROLIZINE-7-FORMAMIDE DERIVATIVE AND APPLICATION THEREOF” (CHIA TAI TIANQING PHARMACEUTICAL GROUP CO., LTD., priority 2018, published 2022)", "key": {"[1]": {"target": "T1, CYP2D6 (Homo sapiens, UniProt P10635)", "T1 construct": "from tissue; host or cells: human liver microsomes", "T1 sequence (P10635 whole entry)": "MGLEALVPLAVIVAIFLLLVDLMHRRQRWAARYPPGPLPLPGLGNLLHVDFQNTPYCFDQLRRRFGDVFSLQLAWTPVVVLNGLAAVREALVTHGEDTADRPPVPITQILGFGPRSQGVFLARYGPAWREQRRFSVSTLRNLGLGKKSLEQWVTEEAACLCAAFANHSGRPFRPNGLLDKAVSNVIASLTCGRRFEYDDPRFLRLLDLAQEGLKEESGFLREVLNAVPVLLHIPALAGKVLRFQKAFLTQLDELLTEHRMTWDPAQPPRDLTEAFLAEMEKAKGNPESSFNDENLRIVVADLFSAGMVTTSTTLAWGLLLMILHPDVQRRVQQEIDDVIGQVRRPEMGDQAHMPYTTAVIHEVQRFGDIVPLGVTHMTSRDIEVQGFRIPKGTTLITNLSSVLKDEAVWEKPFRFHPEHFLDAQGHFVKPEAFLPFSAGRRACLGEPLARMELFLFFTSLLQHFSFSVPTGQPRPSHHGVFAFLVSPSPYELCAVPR", "assay": "Inhibition of human liver microsomal cytochrome P450 isoenzymes", "format": "in vitro ADME", "settings": "human liver microsomes", "procedure": "(§1) Experimental objective: to determine the inhibitory effect of the test compound on the activity of human liver microsomal cytochrome P450 isoenzymes (CYP1A2, CYP2C9, CYP2C19, CYP2D6 and CYP3A4). Experimental procedures: first, the test compound (10 mM) was diluted in gradient to prepare working solutions (100× final concentration) at concentrations of: 5, 1.5, 0.5, 0.15, 0.05, 0.015, and 0.005 mM, and working solutions of positive inhibitors for P450 isoenzymes (CYP1A2, CYP2C9, CYP2C19, CYP2D6, and CYP3A4) and the specific substrate mixtures thereof (5 in 1) were prepared simultaneously; human liver microsomes frozen in a−80° C. refrigerator were thawed on ice, and after all thawed, the human liver microsomes were diluted with PB to prepare a working solution at a specific concentration (0.253 mg/mL); 20 μL of the substrate mixture (20 μL of PB was added into the blank well) and 158 μL of the working solution of human liver microsomes were added into the reaction plate which was then placed on ice for use; then 2 μL of the test compound at each concentration (N=1) and a specific inhibitor (N=2) were added into the corresponding well, and the group without the inhibitor (test compound or the positive inhibitor) was added with a corresponding organic solvent as a control sample (the test compound control sample was 1:1 DMSO:MeOH; the positive control sample was 1:9 DMSO:MeOH); after pre-incubation under a 37° C. water bath for 10 min, 20 μL of a coenzyme factor (NADPH) solution was added into the reaction plate and incubated under a 37° C. water bath for 10 min, 400 μL of a cold acetonitrile solution (the internal standard was 200 ng/mL Tolbutamide and Labetalol) was added to terminate the reaction, and the reaction plate was placed on a shaker and shaken for 10 min; after centrifugation at 4,000 rpm for 20 min, 200 μL of the supernatant was collected and added to 100 μL of water to dilute the sample, and, finally, the plate was sealed, oscillated shaken evenly, and subjected to LC/MS/MS detection."}, "[2]": {"target": "T2, CYP2C9 (Homo sapiens, UniProt P11712)", "T2 construct": "from tissue; host or cells: human liver microsomes", "T2 sequence (P11712 whole entry)": "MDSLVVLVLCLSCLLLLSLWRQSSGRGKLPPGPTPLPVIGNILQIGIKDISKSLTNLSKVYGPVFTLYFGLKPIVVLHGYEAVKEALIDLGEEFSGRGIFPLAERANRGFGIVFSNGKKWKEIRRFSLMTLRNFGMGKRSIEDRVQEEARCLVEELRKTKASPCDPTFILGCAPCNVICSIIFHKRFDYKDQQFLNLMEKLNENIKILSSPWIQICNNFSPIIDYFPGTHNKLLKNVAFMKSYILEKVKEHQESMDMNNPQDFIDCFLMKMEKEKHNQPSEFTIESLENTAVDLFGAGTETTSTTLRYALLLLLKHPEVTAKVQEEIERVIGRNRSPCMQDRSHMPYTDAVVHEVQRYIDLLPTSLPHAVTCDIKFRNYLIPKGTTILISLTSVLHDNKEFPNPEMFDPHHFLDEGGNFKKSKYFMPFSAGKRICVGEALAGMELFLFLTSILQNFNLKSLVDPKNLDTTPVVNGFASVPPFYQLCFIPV", "assay": "Inhibition of human liver microsomal cytochrome P450 isoenzymes", "format": "in vitro ADME", "settings": "human liver microsomes", "procedure": "as §1"}, "[3]": {"target": "T3, CYP1A2 (Homo sapiens, UniProt P05177)", "T3 construct": "from tissue; host or cells: human liver microsomes", "T3 sequence (P05177 1-516)": "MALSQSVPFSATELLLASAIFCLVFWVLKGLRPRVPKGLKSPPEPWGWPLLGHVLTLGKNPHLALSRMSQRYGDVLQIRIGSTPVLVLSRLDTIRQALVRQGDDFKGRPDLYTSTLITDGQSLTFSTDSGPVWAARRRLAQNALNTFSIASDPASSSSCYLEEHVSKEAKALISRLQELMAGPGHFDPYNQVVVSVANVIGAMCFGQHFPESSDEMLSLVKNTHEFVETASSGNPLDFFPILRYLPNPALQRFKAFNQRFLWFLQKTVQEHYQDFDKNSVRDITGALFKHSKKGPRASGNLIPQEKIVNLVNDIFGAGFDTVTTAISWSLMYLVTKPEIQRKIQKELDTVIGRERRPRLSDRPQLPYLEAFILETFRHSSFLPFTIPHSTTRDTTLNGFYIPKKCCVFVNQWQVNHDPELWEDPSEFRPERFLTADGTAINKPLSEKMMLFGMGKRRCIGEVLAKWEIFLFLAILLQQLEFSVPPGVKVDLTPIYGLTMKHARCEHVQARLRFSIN", "assay": "Inhibition of human liver microsomal cytochrome P450 isoenzymes", "format": "in vitro ADME", "settings": "human liver microsomes", "procedure": "as §1"}, "[4]": {"target": "T4, CYP2C19 (Homo sapiens, UniProt P33261)", "T4 construct": "from tissue; host or cells: human liver microsomes", "T4 sequence (P33261 whole entry)": "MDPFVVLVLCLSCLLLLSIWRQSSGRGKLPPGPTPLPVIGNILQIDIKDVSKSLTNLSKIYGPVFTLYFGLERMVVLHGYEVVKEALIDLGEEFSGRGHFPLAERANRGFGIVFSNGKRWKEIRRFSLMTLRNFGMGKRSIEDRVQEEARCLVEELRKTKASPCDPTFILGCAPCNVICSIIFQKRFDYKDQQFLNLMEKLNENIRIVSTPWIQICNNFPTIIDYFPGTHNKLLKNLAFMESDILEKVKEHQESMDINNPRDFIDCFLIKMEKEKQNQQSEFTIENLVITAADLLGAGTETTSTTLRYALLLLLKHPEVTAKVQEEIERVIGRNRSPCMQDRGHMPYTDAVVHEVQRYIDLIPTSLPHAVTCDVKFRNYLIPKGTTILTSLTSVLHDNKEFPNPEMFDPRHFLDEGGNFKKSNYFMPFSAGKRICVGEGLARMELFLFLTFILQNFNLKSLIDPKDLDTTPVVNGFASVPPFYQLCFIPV", "assay": "Inhibition of human liver microsomal cytochrome P450 isoenzymes", "format": "in vitro ADME", "settings": "human liver microsomes", "procedure": "as §1"}, "[5]": {"target": "T5, CYP3A4 (Homo sapiens, UniProt P08684)", "T5 construct": "from tissue; host or cells: human liver microsomes", "T5 sequence (P08684 whole entry)": "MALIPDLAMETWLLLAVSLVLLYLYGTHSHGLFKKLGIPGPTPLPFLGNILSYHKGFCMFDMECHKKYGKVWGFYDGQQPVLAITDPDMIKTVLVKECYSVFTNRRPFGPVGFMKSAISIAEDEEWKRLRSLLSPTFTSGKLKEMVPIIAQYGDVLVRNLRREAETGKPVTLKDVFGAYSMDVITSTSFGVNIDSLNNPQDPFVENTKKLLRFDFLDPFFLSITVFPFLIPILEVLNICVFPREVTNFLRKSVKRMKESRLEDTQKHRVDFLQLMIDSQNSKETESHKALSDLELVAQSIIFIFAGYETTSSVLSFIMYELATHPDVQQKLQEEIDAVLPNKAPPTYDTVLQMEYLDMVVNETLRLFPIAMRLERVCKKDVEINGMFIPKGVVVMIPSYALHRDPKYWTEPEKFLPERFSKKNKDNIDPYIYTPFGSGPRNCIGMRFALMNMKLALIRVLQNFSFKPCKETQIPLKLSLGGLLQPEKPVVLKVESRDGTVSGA", "assay": "Inhibition of human liver microsomal cytochrome P450 isoenzymes", "format": "in vitro ADME", "settings": "human liver microsomes", "procedure": "as §1"}, "[6]": {"system": "HBV", "assay": "qPCR test in the HBV in vitro test (HBV DNA in HepG2.2.15 cells)", "format": "cell-based", "settings": "Hepatitis B virus, 192 h, HBV DNA in HepG2.2.15 culture medium, day 8, read-out: Half maximal inhibitory concentration (EC50) of HBV", "procedure": "To evaluate the inhibitory effect of the compound on HBV by detecting content of HBV DNA in HepG2.2.15 cells in a real-time qPCR test, with EC50 of the compound as an indicator.\n3.1. HepG2.2.15 cells (4×10^4 cells/well) were inoculated into a 96-well plate and cultured at 37° C. in 5% CO2 overnight. 3.2. On day 2, the compound was 3-fold diluted in gradient for a total of 8 dilution gradients. The compound at different concentrations was added into the culture wells in duplicate. The final concentration of DMSO in the culture medium was 1%. 1 μM GLS4 was used as a 100% inhibition control (the structure of GLS4 disclosed in WO2008154817A1 is as follows:\n1% DMSO was used as a 0% inhibition control. 3.3. On day 5, the culture medium was replaced with a fresh culture medium containing the compound. 3.4. On day 8, the culture medium in the culture wells was collected, and the high-throughput DNA purification kit (Qiagen-51162) was used to extract DNA. For specific steps, refer to the product manual.\n3.6. Each well of the 96-well PCR plate was added with 15 μL of the reaction mixture, and then with 10 μL of sample DNA or HBV DNA standard. 3.7. The reaction conditions for PCR: heating at 95° C. for 10 min, degeneration at 95° C. for 15 s, and extension at 60° C. for 1 min, with a total of 40 cycles.\n3.8.1. Calculation of the inhibition percentage: % Inh.=[1−(DNA copy number in the sample−DNA copy number in 1 μM GLS4)/(DNA copy number in the DMSO control−DNA copy number in 1 μM GLS4)]×100. 3.8.2. Calculation of EC50: half maximal inhibitory concentration (EC50) of the compound for HBV was calculated using GraphPad Prism software. 3.8.3."}, "[7]": {"assay": "Metabolic stability in liver microsomes", "format": "in vitro ADME", "settings": "mouse, CD-1 mice liver microsomes", "procedure": "(§2) Experimental objective: to evaluate the metabolic stability of the test compound in CD-1 mice and human liver microsomes\n(§3) Experimental procedures: first, the test compound (10 mM) was subjected to a two-step dilution, where the compound was diluted to an intermediate concentration of 100 μM with 100% methanol, and the working solution was diluted to 10 μM with a potassium phosphate buffer; eight 96-well incubation plates were prepared, and named T0, T5, T10, T20, T30, T60, Blank and NCF60, respectively; the reaction time points corresponding to the first 6 incubation plates were 0, 5, 10, 20, 30 and 60 min, respectively; for the Blank plate, neither the test compound nor a control compound was added, and for the NCF60 plate, potassium phosphate buffer was used in an incubation of 60 min in place of a NADPH regeneration system solution; 10 μL of the test compound working solution and 80 μL of the microsome working solution (liver microsome protein concentration was 0.625 mg/mL) were added to the T0, T5, T10, T20, T30, T60 and NCF60 plates, while only the microsome working solution was added to the Blank plate, and all the incubation plates were then placed in a 37° C. water bath for pre-incubation for about 10 min; after the pre-incubation, 10 μL of a NADPH regeneration system working solution was added into each sample well of all the plates except the NCF60 plate and T0 plate to start the reaction, and 10 μL of potassium phosphate buffer was added to each well of the NCF60 plate; therefore, in the test compound or control compound samples, the final reaction concentrations of the compound, testosterone, diclofenac and propafenone were 1 μM, the concentration of the liver microsomes was 0.5 mg/mL, and the final concentrations of DMSO and acetonitrile in the reaction system were 0.01% (v/v) and 0.99% (v/v), respectively; after incubation for an appropriate time (such as 5, 10, 20, 30, and 60 min), 300 μL of a stop solution (acetonitrile solution containing 100 ng/mL tolbutamide and 100 ng/mL labetalol) was added to each sample well to stop the reaction; 300 μL of the stop solution and then 10 μL of the NADPH working solution were added to the T0 plate, all the sample plates were shaken and centrifuged in a centrifuge (3220×g) for 20 min, and then 100 μL of supernatant was taken from each well and diluted with 300 μL of pure water for liquid chromatography-tandem mass spectrometry analysis."}, "[8]": {"assay": "Metabolic stability in liver microsomes", "format": "in vitro ADME, human", "procedure": "as §2, §3"}}, "note": "Where two headings read alike, the source gives them in different places.", "data": [{"smiles": "C[C@]1(NC(=O)C(=O)c2c(Cl)c(C(=O)Nc3ccc(F)c(F)c3)c3n2CCC3)CC[C@@H](CC(=O)O)CC1", "note": "[Compound 17]", "values": [{"measurement": "IC50", "setting": "[1]", "result": "> 50", "unit": "µM"}, {"measurement": "IC50", "setting": "[2]", "result": "> 50", "unit": "µM"}, {"measurement": "IC50", "setting": "[3]", "result": "> 50", "unit": "µM"}, {"measurement": "IC50", "setting": "[4]", "result": "> 50", "unit": "µM"}, {"measurement": "IC50", "setting": "[5]", "result": "> 50", "unit": "µM"}, {"measurement": "EC50", "setting": "[6]", "result": 0.007, "unit": "µM"}, {"measurement": "CLint scaled at 1 μM", "setting": "[7]", "result": "< 38", "unit": "mL/min/kg"}, {"measurement": "half-life at 1 μM", "setting": "[7]; 1 μM compound, 0.5 mg/mL", "result": "> 2.42", "unit": "h"}, {"measurement": "microsomal CLint at 1 μM", "setting": "[7]; read-out: CLint(mic)", "result": "< 9.6", "unit": "µL/min/mg"}, {"measurement": "half-life at 1 μM", "setting": "[8]; Human liver microsomes, 1 μM compound, 0.5 mg/mL", "result": "> 2.42", "unit": "h"}, {"measurement": "CLint scaled at 1 μM", "setting": "[8]; human liver microsomes", "result": "< 8.6", "unit": "mL/min/kg"}, {"measurement": "microsomal CLint at 1 μM", "setting": "[8]; human liver microsomes, read-out: CLint(mic)", "result": "< 9.6", "unit": "µL/min/mg"}]}]}
